Laboratory results as given in ChEMBL document CHEMBL1124664, “Synthesis and cytostatic and antiviral activities of 1-beta-D-ribofuranosyl-5-alkylcytosine (5-alkylcytidine) cyclic 3',5'-monophosphates” (1989).
Values after ≈ are worked out from the molar mass of the structure shown. Active and inactive are the calls of the source. The rule behind the calls is not given here.

How the values were obtained:
Human alphaherpesvirus 1 = experiment: Antiviral activity on the replication of HSV-1 at 400 ug/mL.; format: functional, organism-based
Vaccinia virus = experiment: Antiviral activity on the replication of vaccinia virus at 400 ug/mL.; format: functional, organism-based; details: Orthopoxvirus vaccinia
[1] = tested on: Vesicular stomatitis virus; experiment: Antiviral activity on the replication of vesicular stomatitis virus at 400 ug/mL.; format: functional, organism-based
Human alphaherpesvirus 2 = experiment: Antiviral activity on the replication of HSV-2 at 400 ug/mL.; format: functional, organism-based
L1210 [2] = experiment: Inhibition of L1210/0 cell proliferation; format: functional; details: Mus musculus, read-out: ID50 (the source's name)
L1210/ara C [3] = experiment: Inhibition of L1210/arac cell proliferation at 200 ug/mL; IA means Inactive; format: functional, cell-based; details: Mus musculus
L1210/ara C [4] = experiment: Inhibition of L1210/ara C cell proliferation; format: functional; details: Mus musculus, read-out: ID50 (the source's name)
L1210 [5] = experiment: Cytotoxic activity against murine leukemia L1210/deoxycytidine kinase deficient cell lines; format: functional; details: Mus musculus, read-out: ID50 (the source's name)
L1210 [6] = experiment: Cytotoxic activity against murine leukemia L1210 cells; format: functional; details: Mus musculus, read-out: ID50 (the source's name)
Oryctolagus cuniculus = species on record: Oryctolagus cuniculus; experiment: Inhibition of rabbit skeletal muscle protein kinase I; format: functional

SMILES	Activity (Human alphaherpesvirus 1)	Activity (Vaccinia virus)	Activity [1]	Activity (Human alphaherpesvirus 2)	IC50 (L1210 [2]) [µg/mL]	Activity (L1210/ara C [3])	IC50 (L1210/ara C [4]) [µg/mL]	IC50 (L1210 [5]) [µg/mL]	IC50 (L1210 [6]) [µg/mL]	Ka (Oryctolagus cuniculus) [µM]
CCCCCCCCc1cn(C2O[C@H](COP(=O)(O)O)[C@@H](O)[C@H]2O)c(=O)nc1N (stereo partly specified)	inactive	inactive	inactive	inactive						
CC(C)c1cn([C@@H]2O[C@H](CO)[C@@H](O)[C@H]2O)c(=O)nc1N					35 (≈ 123 µM)	inactive	39 (≈ 137 µM)			
Cc1cn([C@@H]2O[C@H](CO)[C@@H](O)[C@H]2O)c(=O)nc1N					94 (≈ 365 µM)	inactive				
Cc1cn([C@@H]2O[C@@H]3COP(=O)(O)O[C@H]3[C@H]2O)c(=O)nc1N.N	inactive	inactive	inactive	inactive				> 200	> 200	
CCCCCCc1cn(C2O[C@H](COP(=O)(O)O)[C@@H](O)[C@H]2O)c(=O)nc1N (stereo partly specified)	inactive	inactive	inactive	inactive						
CCCCCCc1cn([C@@H]2O[C@@H]3COP(=O)(O)O[C@H]3[C@H]2O)c(=O)nc1N.N	inactive	inactive	inactive	inactive				> 200	> 200	0.8
CCCCCCCCc1cn([C@@H]2O[C@@H]3COP(=O)(O)O[C@H]3[C@H]2O)c(=O)nc1N.N	inactive	inactive	inactive	inactive				> 200	> 200	0.8
CCCCCc1cn(C2O[C@H](COP(=O)(O)O)[C@@H](O)[C@H]2O)c(=O)nc1N (stereo partly specified)	inactive	inactive	inactive	inactive						
Nc1ccn([C@@H]2O[C@@H]3COP(=O)(O)O[C@H]3[C@H]2O)c(=O)n1					43 (≈ 141 µM)					0.03
CCc1cn(C2O[C@H](COP(=O)(O)O)[C@@H](O)[C@H]2O)c(=O)nc1N (stereo partly specified)	inactive	inactive	inactive	inactive						
CC(C)c1cn([C@@H]2O[C@@H]3COP(=O)(O)O[C@H]3[C@H]2O)c(=O)nc1N.N	inactive	inactive	inactive	inactive				> 200	> 200	0.8
CCCc1cn(C2O[C@H](COP(=O)(O)O)[C@@H](O)[C@H]2O)c(=O)nc1N (stereo partly specified)	inactive	inactive	inactive	inactive						
CCCCCCCCc1cnc(O)nc1N					190 (≈ 851 µM)	inactive				
Cc1cn([C@@H]2O[C@H](COP(=O)(O)O)[C@@H](O)[C@H]2O)c(=O)nc1N	inactive	inactive	inactive	inactive	162 (≈ 480 µM)	inactive				
CCCCc1cn([C@@H]2O[C@@H]3COP(=O)(O)O[C@H]3[C@H]2O)c(=O)nc1N.N	inactive	inactive	inactive	inactive				> 200	> 200	0.8
CCc1cn([C@@H]2O[C@@H]3COP(=O)(O)O[C@H]3[C@H]2O)c(=O)nc1N.N	inactive	inactive	inactive	inactive				> 200	> 200	0.8
CC(C)c1cn(C2O[C@H](COP(=O)(O)O)[C@@H](O)[C@H]2O)c(=O)nc1N (stereo partly specified)	inactive	inactive	inactive	inactive						
Nc1ccn([C@@H]2O[C@H](COP(=O)(O)O)[C@@H](O)[C@H]2O)c(=O)n1					43 (≈ 133 µM)	inactive				
CCCCc1cn(C2O[C@H](COP(=O)(O)O)[C@@H](O)[C@H]2O)c(=O)nc1N (stereo partly specified)	inactive	inactive	inactive	inactive						
